Patent US20100273205A1, “Magnetic resonance imaging contrast agents” (priority 2005, published 2010)

Test system: formalin-fixed visual cortex (gray and white matter)
Assay: LFB relaxation enhancement, inversion-recovery spin-echo and multi-echo spin-echo MR at 14T
Design: species or system human
Settings: LFB in 95% ethanol then Li2CO3, versus formalin control
Experimental: Formalin-fixed samples of visual cortex, approximately 1 cm in thickness, were immersed in a mixture of LFB dissolved in a solvent of 95% ethanol (500 mg LFB in 50 ml ethanol) for durations between 48 hours and 3 months. Following LFB staining, the tissue was rinsed in 70% ethanol, rinsed in distilled water, and then immersed in an aqueous solution of lithium carbonate(Li2CO3) (0.25 g Li2CO3 in 500 mL water) until gray-white matter contrast had increased, ranging between approximately 5 minutes and 24 hours. Next, the tissue was rinsed twice more in 70% ethanol and lastly in distilled water. Additional control samples were prepared with 1) formalin only or 2) 95% ethanol followed by immersion in Li2CO3.
Tissue samples were blotted and then immersed in perfluoropolyether (Fomblin, Ausimont USA, Thorofare, N.J.) in a low-pressure environment. […] The low-pressure environment is used to remove artifact-inducing air bubbles from within the tissue.
Data was acquired using a 10 mm birdcage coil in a vertical bore 14T magnet (Magnex Scientific, Oxford, England), with an 89-mm bore and 100 G/cm gradient coil. An inversion-recovery prepared spin-echo sequence and a multi-echo spin-echo sequence were used to determine T1 and T2, respectively. Parameters were estimated in three regions of interest (ROIs), outer gray matter (GMo), inner gray matter (GMi), and white matter (WM), using a nonlinear least-squares fitting routine using the following equations, a:
SIIR−SE=Mo(1−2αe^−TIIT^1)SISE∝Moe^−TEIT^2
where α represents flip angle deviation from 180° and Mo is the equilibrium magnetization.

## Luxol fast blue [LFB]
  decrease of T1 in inner gray matter (GMi): 41%
  decrease of T1 in outer gray matter (GMo): 30%
  decrease of T1 in white matter (WM): 47%
